The source of these data is patent US20230257396A1, “MACROCYCLES AND THEIR USE” (BLOSSOMHILL THERAPEUTICS, INC., priority 2020, published 2023).

Holding throughout (assay): KINOMEscan kinase binding assay (Eurofins/DiscoveRx), % Ctrl
The target in assay [1] is T1, kinases (Homo sapiens, UniProt P00519, T315I).
T1 construct: purchased Eurofins/DiscoveRx; host or cells: E. coli BL21-derived host (T7 phage display) for most kinases; HEK-293 for the rest
Summed up: (§1)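 Competition binding, 1 h RT: phage-tagged or HEK-293-expressed DNA-tagged kinase + immobilized ligand + compound. Eluate kinase by qPCR. % Ctrl = (test − positive ctrl)/(negative ctrl − positive ctrl) × 100; lower means stronger binding.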

In assay [2] the target is T2, kinases (Homo sapiens, UniProt P00519, E255K).
T2 construct: purchased Eurofins/DiscoveRx; host or cells: E. coli BL21-derived host (T7 phage display) for most kinases; HEK-293 for the rest
Summed up: as §1

Assay [3] addresses T3, kinases (Homo sapiens, UniProt P07949, V804M).
T3 construct: purchased Eurofins/DiscoveRx; host or cells: E. coli BL21-derived host (T7 phage display) for most kinases; HEK-293 for the rest
Put shortly: as §1

Assay [4] addresses T4, kinases (Homo sapiens, UniProt P36888).
T4 construct: purchased Eurofins/DiscoveRx; host or cells: E. coli BL21-derived host (T7 phage display) for most kinases; HEK-293 for the rest
T4 sequence (P36888 27-993): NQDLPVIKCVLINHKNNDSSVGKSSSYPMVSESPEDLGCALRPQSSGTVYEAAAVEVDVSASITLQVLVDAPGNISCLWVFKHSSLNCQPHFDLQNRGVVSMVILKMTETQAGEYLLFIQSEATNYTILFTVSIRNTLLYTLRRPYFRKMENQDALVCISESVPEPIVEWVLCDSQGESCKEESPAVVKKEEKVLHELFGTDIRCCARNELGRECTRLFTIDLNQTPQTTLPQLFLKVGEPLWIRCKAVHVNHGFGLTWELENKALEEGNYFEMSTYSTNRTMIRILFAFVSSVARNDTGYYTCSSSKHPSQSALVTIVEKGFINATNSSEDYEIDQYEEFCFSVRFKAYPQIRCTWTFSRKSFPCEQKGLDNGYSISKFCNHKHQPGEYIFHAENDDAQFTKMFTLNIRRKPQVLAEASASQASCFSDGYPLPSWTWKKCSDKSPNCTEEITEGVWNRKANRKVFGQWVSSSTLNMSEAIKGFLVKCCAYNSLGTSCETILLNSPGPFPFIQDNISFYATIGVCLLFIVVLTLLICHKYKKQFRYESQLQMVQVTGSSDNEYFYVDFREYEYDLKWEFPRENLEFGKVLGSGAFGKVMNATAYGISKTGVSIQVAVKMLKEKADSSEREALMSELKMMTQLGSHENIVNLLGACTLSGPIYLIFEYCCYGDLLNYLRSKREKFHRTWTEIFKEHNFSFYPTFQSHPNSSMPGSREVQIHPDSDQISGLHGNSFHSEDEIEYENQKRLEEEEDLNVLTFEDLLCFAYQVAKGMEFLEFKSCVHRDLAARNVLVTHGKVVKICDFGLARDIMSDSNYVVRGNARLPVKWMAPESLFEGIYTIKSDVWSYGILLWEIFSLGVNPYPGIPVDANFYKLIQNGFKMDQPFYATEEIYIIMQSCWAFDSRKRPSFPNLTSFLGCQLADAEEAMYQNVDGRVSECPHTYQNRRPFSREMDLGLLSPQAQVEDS
Summed up: as §1

Assay [5] deals with T5, kinases (Homo sapiens, UniProt P00519, Y253F).
T5 construct: purchased Eurofins/DiscoveRx; host or cells: E. coli BL21-derived host (T7 phage display) for most kinases; HEK-293 for the rest
Summed up: as §1

The mark [6] stands for this setting: 1 μM; ABL1(T315I)-nonphosphorylated.
Where [7] appears, read: 1 μM; ABL1(T315I)-phosphorylated.
[8] abbreviates: 1 μM; ABL1(E255K)-phosphorylated.
Setting [9] is: 1 μM; ABL1(Y253F)-phosphorylated.

T3 sequence (P07949 29-1114 V804M): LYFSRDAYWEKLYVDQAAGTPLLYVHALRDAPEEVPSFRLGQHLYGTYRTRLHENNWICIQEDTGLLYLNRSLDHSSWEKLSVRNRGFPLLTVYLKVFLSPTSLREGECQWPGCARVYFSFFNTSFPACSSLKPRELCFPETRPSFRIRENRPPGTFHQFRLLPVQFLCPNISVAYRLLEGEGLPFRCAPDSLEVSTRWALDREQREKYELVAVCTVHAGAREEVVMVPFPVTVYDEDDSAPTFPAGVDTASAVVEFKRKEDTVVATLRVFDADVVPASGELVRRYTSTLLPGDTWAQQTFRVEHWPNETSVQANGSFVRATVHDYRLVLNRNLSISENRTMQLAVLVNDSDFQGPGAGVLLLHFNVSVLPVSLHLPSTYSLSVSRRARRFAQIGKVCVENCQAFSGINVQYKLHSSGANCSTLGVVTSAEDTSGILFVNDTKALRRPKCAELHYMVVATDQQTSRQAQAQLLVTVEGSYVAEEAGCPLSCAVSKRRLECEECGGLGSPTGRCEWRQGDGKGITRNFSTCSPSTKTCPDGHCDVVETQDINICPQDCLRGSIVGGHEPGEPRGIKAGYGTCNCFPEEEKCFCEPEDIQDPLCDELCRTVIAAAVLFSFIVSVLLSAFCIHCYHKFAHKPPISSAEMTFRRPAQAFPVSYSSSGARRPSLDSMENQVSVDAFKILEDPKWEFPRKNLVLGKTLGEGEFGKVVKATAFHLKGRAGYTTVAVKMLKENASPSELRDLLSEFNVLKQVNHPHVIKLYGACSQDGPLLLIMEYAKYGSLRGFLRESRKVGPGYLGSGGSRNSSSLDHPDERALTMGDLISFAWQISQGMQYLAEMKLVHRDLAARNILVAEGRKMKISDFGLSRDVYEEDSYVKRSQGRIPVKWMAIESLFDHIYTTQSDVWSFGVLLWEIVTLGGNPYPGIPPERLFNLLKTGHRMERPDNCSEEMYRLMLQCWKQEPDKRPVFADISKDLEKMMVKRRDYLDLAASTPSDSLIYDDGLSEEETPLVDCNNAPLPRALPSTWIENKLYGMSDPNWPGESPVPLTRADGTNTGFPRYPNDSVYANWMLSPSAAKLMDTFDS

`Cc1cc2c([nH]1)/C=C1\C(=O)Nc3cc(Cl)c(cc31)OCCOCCN(C)C2=O` [Ex. 131, [16a(17)Z]-19-chloro-2,5-dimethyl-6,7,9,10-tetrahydro-1H-12,14-(ethanediylidene)dipyrrolo[3,2-i:3′,4′-l][1,4,7]dioxazacyclopentadecine-4,16(5H,15H)-dione]: in assay [1] (setting [6]), the “% Ctrl, ABL1(T315I)-nonphosphorylated” value stood at 0 % Ctrl. The “% Ctrl, ABL1(T315I)-phosphorylated” value in assay [1] (setting [7]) turned out to be 1.1 % Ctrl. Further, in assay [2] (setting [8]), the “% Ctrl, ABL1(E255K)-phosphorylated” value is on record as 0 % Ctrl. In addition, in assay [3] (1 μM; RET(V804M)), the “% Ctrl, RET(V804M)” value is given as 0.15 % Ctrl. The “% Ctrl, FLT3” value in assay [4] (1 μM; FLT3) worked out at 0.6 % Ctrl. Besides, in assay [4] (1 μM; FLT3-autoinhibited), the “% Ctrl, FLT3-autoinhibited” value came to 5.1 % Ctrl. In assay [5] (setting [9]), the “% Ctrl, ABL1(Y253F)-phosphorylated” value is reported as 0 % Ctrl.

For `Cc1nn(C)c2c1-c1ccc3c(c1)/C(=C/c1[nH]ccc1C(=O)N(C)CCCO2)C(=O)N3` [Ex. 150, [3a(4)Z]-9,14,16-trimethyl-10,11,13,14-tetrahydro-2H-1,17-(ethanediylidene)pyrazolo[4,3-m]dipyrrolo[3,2-f:3′,4′-i][1,4]oxazacyclopentadecine-3,8(5H,9H)-dione], in assay [1] (target ABL1(T315I)-nonphosphorylated; 1 μM), the “% Ctrl, ABL1(T315I)-nonphosphorylated” value is listed as 93 % Ctrl. In addition, the “% Ctrl, ABL1(T315I)-phosphorylated” value in assay [1] (target ABL1(T315I)-phosphorylated; 1 μM) is on record as 83 % Ctrl. Besides, in assay [2] (target ABL1(E255K)-phosphorylated; 1 μM), the “% Ctrl, ABL1(E255K)-phosphorylated” value was found to be 95 % Ctrl. Also, the “% Ctrl, RET(V804M)” value in assay [3] (target RET(V804M); 1 μM) stood at 68 % Ctrl. The “% Ctrl, FLT3-autoinhibited” value in assay [4] (target FLT3-autoinhibited; 1 μM) was 82 % Ctrl. Moreover, the “% Ctrl, FLT3” value in assay [4] (target FLT3; 1 μM) is 71 % Ctrl. The “% Ctrl, ABL1(Y253F)-phosphorylated” value in assay [5] (target ABL1(Y253F)-phosphorylated; 1 μM) stood at 100 % Ctrl.

In the case of `Cc1cc2c([nH]1)/C=C1\C(=O)Nc3cnc(nc31)N(C)CCCOCCN(C)C2=O` [Ex.71, [17a(18)Z]-2,5,12-trimethyl-6,7,9,10,11,12-hexahydro-1H-13,15-(azenometheno)dipyrrolo[3,2-f:3′,4′-i][1,4,11,13]oxatriazacyclohexadecine-4,17(5H,16H)-dione], the “% Ctrl, ABL1(T315I)-nonphosphorylated” value in assay [1] (setting [6]) worked out at 100 % Ctrl. For the same molecule, in assay [1] (setting [7]), the “% Ctrl, ABL1(T315I)-phosphorylated” value is given as 100 % Ctrl. For the same molecule, the “% Ctrl, ABL1(E255K)-phosphorylated” value in assay [2] (setting [8]) came to 85 % Ctrl. In addition, the “% Ctrl, RET(V804M)” value in assay [3] (1 μM; RET(V804M)) worked out at 89 % Ctrl. For the same molecule, the “% Ctrl, FLT3” value in assay [4] (1 μM; FLT3) is 93 % Ctrl. In addition, the “% Ctrl, FLT3-autoinhibited” value in assay [4] (1 μM; FLT3-autoinhibited) worked out at 100 % Ctrl. Also, the “% Ctrl, ABL1(Y253F)-phosphorylated” value in assay [5] (setting [9]) stood at 91 % Ctrl.

Turning to `CNC(=O)[C@H]1CN(C)C(=O)c2cc(C)[nH]c2/C=C2\C(=O)Nc3cc(Cl)c(cc32)OCCO1` [Ex. 135, [7R,16a(17)Z]-19-chloro-N,2,5-trimethyl-4,16-dioxo-4,5,6,7,9,10,15,16-octahydro-1H-12,14-(ethanediylidene)dipyrrolo[3,2-i:3′,4′-l][1,4,7]dioxazacyclopentadecine-7-carboxamide], in assay [1] (setting [6]), the “% Ctrl, ABL1(T315I)-nonphosphorylated” value was determined as 94 % Ctrl. In assay [1] (setting [7]), the “% Ctrl, ABL1(T315I)-phosphorylated” value amounted to 72 % Ctrl. In addition, the “% Ctrl, ABL1(E255K)-phosphorylated” value in assay [2] (setting [8]) is listed as 56 % Ctrl. In addition, the “% Ctrl, RET(V804M)” value in assay [3] (1 μM; RET(V804M)) amounted to 77 % Ctrl. In addition, the “% Ctrl, FLT3” value in assay [4] (1 μM; FLT3) was found to be 57 % Ctrl. Further, the “% Ctrl, FLT3-autoinhibited” value in assay [4] (1 μM; FLT3-autoinhibited) is recorded as 89 % Ctrl. In assay [5] (setting [9]), the “% Ctrl, ABL1(Y253F)-phosphorylated” value was 55 % Ctrl.

In the case of `Cc1cc2c([nH]1)/C=C1\C(=O)Nc3ccc(cc31)-c1cnn(C)c1COCCN(C)C2=O` [Ex. 124, [3a(4)Z]-6,9,14-trimethyl-10,11,13,14-tetrahydro-2H-1,17-(ethanediylidene)pyrazolo[4,3-m]dipyrrolo[3,2-f:3′,4′-i][1,4]oxazacyclopentadecine-3,8(5H,9H)-dione], the “% Ctrl, ABL1(T315I)-nonphosphorylated” value in assay [1] (setting [6]) turned out to be 0 % Ctrl. Further, the “% Ctrl, ABL1(T315I)-phosphorylated” value in assay [1] (setting [7]) is recorded as 0.1 % Ctrl. The “% Ctrl, ABL1(E255K)-phosphorylated” value in assay [2] (setting [8]) was 0 % Ctrl. Also, in assay [3] (1 μM; RET(V804M)), the “% Ctrl, RET(V804M)” value is listed as 0.05 % Ctrl. Also, in assay [4] (1 μM; FLT3), the “% Ctrl, FLT3” value is recorded as 0.15 % Ctrl. Further, the “% Ctrl, FLT3-autoinhibited” value in assay [4] (1 μM; FLT3-autoinhibited) is on record as 0.35 % Ctrl. Moreover, in assay [5] (setting [9]), the “% Ctrl, ABL1(Y253F)-phosphorylated” value is given as 0 % Ctrl.

On to `Cc1cc2c([nH]1)/C=C1\C(=O)Nc3cc(Cl)c(cc31)OCCO[C@@H](C(=O)NC1CCNCC1)CN(C)C2=O` [Ex. 134, [7R,16a(17)Z]-19-chloro-2,5-dimethyl-4,16-dioxo-N-(piperidin-4-yl)-4,5,6,7,9,10,15,16-octahydro-1H-12,14-(ethaneidylidene)dipyrrolo[3,2-i:3′,4′-l][1,4,7]dioxazacyclopentadecine-7-carboxamide], for which, in assay [1] (setting [6]), the “% Ctrl, ABL1(T315I)-nonphosphorylated” value worked out at 84 % Ctrl. The “% Ctrl, ABL1(T315I)-phosphorylated” value in assay [1] (setting [7]) is given as 46 % Ctrl. Moreover, the “% Ctrl, ABL1(E255K)-phosphorylated” value in assay [2] (setting [8]) is listed as 50 % Ctrl. Besides, the “% Ctrl, RET(V804M)” value in assay [3] (1 μM; RET(V804M)) was determined as 81 % Ctrl. Besides, in assay [4] (1 μM; FLT3), the “% Ctrl, FLT3” value was 48 % Ctrl. Besides, in assay [4] (1 μM; FLT3-autoinhibited), the “% Ctrl, FLT3-autoinhibited” value amounted to 95 % Ctrl. Also, in assay [5] (setting [9]), the “% Ctrl, ABL1(Y253F)-phosphorylated” value is listed as 32 % Ctrl.

Take `Cc1cc2c([nH]1)/C=C1\C(=O)Nc3ccc(cc31)-c1c(noc1C(C)C)COCCN(C)C2=O` [Ex. 161, [3a(4)Z]-9-methyl-16-(propan-2-yl)-10,11-dihydro-2H,13H-1,17-(ethanediylidene)[1,2]oxazolo[4,3-m]dipyrrolo[3,2-f:3′,4′-i][1,4]oxazacyclopentadecine-3,8(5H,9H)-dione]: the “% Ctrl, ABL1(T315I)-nonphosphorylated” value in assay [1] (1 μM; target ABL1(T315I)-nonphosphorylated) was 90 % Ctrl. In addition, in assay [1] (1 μM; target ABL1(T315I)-phosphorylated), the “% Ctrl, ABL1(T315I)-phosphorylated” value stood at 85 % Ctrl. Also, the “% Ctrl, ABL1(E255K)-phosphorylated” value in assay [2] (1 μM; target ABL1(E255K)-phosphorylated) was determined as 86 % Ctrl. For the same molecule, the “% Ctrl, RET(V804M)” value in assay [3] (1 μM; target RET(V804M)) came out at 83 % Ctrl. In addition, the “% Ctrl, FLT3” value in assay [4] (1 μM; target FLT3) is recorded as 100 % Ctrl. The “% Ctrl, FLT3-autoinhibited” value in assay [4] (1 μM; target FLT3-autoinhibited) is recorded as 100 % Ctrl. Also, the “% Ctrl, ABL1(Y253F)-phosphorylated” value in assay [5] (1 μM; target ABL1(Y253F)-phosphorylated) worked out at 78 % Ctrl.

Take `Cc1cc2c([nH]1)/C=C1\C(=O)Nc3ccc(cc31)-c1ccnn1CCNCCNC2=O` [Ex. 43, [19a(20)Z]-2-methyl-5,6,7,8,9,10-hexahydro-15,17-(ethanediylidene)pyrazolo[1,5-g]dipyrrolo[3,4-k:2′,3′-n][1,4,7]triazacyclohexadecine-4,19(1H,18H)-dione]: the “% Ctrl, ABL1(T315I)-nonphosphorylated” value in assay [1] (setting [6]) is on record as 68 % Ctrl. Moreover, the “% Ctrl, ABL1(T315I)-phosphorylated” value in assay [1] (setting [7]) was 75 % Ctrl. Also, the “% Ctrl, ABL1(E255K)-phosphorylated” value in assay [2] (setting [8]) was 84 % Ctrl. Also, the “% Ctrl, RET(V804M)” value in assay [3] (1 μM; RET(V804M)) stood at 97 % Ctrl. Moreover, the “% Ctrl, FLT3” value in assay [4] (1 μM; FLT3) was 99 % Ctrl. Moreover, the “% Ctrl, FLT3-autoinhibited” value in assay [4] (1 μM; FLT3-autoinhibited) came to 77 % Ctrl. Also, the “% Ctrl, ABL1(Y253F)-phosphorylated” value in assay [5] (setting [9]) is given as 80 % Ctrl.
